One may read the inhibition as the drop in the measured response relative to a control, in per cent.

This passage reports inhibition results from ChEMBL document CHEMBL5696442, “Discovery of type II inhibitors of TGFβ-activated kinase 1 (TAK1) and mitogen-activated protein kinase kinase kinase kinase 2 (MAP4K2)” (J Med Chem, 2015).

Molecules are shown by their SMILES. The source made the active and inactive calls. No cut-off for these calls is given here.

The target of assay [1] is Dual specificity mitogen-activated protein kinase kinase 1 (Homo sapiens) (UniProt Q02750). In words: Inhibition of MAP2K1 Lys2 labeling site harbouring IMHRDVKPSNILVNSR in human A-375 cells at 5 uM by KiNativ Profiling analysis relative to control. Type of assay: cell-based.
Sequence of Dual specificity mitogen-activated protein kinase kinase 1 (Homo sapiens) (Q02750 whole entry): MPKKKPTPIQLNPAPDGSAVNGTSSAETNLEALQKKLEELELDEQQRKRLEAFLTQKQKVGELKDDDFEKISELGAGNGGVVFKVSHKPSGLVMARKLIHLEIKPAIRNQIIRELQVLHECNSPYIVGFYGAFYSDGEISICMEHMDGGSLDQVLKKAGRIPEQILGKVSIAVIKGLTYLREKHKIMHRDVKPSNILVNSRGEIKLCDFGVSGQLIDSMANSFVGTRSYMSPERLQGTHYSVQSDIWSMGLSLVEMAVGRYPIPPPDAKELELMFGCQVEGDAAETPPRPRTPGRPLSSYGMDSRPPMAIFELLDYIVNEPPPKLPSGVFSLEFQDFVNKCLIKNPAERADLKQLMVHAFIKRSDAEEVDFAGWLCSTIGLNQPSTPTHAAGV
Assay [2] deals with Serine/threonine-protein kinase 4 (Homo sapiens) (UniProt Q13043). Nature of the assay: Inhibition of MST1 Lys1 labeling site harbouring ETGQIVAIKQVPVESDLQEIIK in human A-375 cells at 0.05 uM by KiNativ Profiling analysis relative to control.
Sequence of Serine/threonine-protein kinase 4 (Homo sapiens) (Q13043 whole entry, looked up): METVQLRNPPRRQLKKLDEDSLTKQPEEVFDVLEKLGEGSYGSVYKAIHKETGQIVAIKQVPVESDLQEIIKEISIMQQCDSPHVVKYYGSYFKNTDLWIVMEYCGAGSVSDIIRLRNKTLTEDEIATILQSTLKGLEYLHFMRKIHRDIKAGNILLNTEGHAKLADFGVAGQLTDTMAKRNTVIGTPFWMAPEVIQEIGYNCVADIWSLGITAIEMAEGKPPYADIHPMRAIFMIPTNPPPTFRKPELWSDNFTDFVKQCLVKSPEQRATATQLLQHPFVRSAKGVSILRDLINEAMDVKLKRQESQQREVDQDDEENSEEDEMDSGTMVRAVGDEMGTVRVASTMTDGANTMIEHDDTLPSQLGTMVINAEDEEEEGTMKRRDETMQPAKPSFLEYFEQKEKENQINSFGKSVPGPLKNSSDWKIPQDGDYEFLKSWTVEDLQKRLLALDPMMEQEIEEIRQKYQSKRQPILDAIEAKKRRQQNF
Assay [3] has as its target 5'-AMP-activated protein kinase catalytic subunit alpha-1 (Homo sapiens) (UniProt Q13131). In words: Inhibition of AMPK-alpha1 (unknown origin) at 1 uM by Ambit Kinomescan binding assay relative to control.
In assay [4] the target is Dual specificity tyrosine-phosphorylation-regulated kinase 1B (Homo sapiens) (UniProt Q9Y463). In words: Inhibition of DYRK1B (unknown origin) at 10 uM by Ambit Kinomescan binding assay.
Sequence of Dual specificity tyrosine-phosphorylation-regulated kinase 1B (Homo sapiens) (Q9Y463 whole entry, looked up): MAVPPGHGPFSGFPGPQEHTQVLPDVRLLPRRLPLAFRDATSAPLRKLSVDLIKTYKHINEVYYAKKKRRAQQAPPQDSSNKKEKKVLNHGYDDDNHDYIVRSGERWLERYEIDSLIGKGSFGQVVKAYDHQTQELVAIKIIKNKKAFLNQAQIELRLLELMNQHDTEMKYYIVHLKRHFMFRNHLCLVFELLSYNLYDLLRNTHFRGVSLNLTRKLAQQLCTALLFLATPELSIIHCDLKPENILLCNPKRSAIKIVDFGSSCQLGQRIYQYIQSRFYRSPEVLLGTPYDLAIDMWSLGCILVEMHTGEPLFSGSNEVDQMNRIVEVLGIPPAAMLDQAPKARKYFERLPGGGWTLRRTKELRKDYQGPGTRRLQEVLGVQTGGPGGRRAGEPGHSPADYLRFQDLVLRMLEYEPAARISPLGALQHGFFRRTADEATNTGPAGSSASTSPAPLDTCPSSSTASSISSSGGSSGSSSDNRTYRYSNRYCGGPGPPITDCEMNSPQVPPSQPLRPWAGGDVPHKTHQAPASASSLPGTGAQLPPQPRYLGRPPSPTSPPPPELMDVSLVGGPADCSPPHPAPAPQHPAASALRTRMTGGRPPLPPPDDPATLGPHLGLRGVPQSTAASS
The target of assay [5] is AMPK alpha1/alpha2 (Homo sapiens) (UniProt P54646+Q13131). Nature of the assay: Inhibition of AMPK alpha1/2 K2 labeling site in human Huh-7 cells at 10 uM by KiNativ Profiling analysis relative to control. It is filed as cell-based.
Sequence of AMPK alpha1/alpha2 (Homo sapiens) (P54646 whole entry, looked up): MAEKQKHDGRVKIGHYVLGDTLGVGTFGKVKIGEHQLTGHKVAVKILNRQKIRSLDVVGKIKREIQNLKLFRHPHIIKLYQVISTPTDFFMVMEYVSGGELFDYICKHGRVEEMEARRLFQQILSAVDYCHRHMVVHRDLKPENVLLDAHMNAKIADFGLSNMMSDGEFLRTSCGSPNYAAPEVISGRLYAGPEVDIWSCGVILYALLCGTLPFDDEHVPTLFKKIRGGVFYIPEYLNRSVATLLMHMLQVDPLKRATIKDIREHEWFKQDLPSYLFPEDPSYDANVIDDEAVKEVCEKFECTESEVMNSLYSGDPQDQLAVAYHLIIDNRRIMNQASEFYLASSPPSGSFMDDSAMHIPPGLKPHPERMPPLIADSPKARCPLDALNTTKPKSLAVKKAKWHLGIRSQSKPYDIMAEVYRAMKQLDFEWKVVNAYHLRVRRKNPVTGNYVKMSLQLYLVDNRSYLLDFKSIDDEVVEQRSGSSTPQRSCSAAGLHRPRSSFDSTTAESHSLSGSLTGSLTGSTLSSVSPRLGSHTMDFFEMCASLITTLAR
Sequence of AMPK alpha1/alpha2 (Homo sapiens) (Q13131 whole entry, looked up): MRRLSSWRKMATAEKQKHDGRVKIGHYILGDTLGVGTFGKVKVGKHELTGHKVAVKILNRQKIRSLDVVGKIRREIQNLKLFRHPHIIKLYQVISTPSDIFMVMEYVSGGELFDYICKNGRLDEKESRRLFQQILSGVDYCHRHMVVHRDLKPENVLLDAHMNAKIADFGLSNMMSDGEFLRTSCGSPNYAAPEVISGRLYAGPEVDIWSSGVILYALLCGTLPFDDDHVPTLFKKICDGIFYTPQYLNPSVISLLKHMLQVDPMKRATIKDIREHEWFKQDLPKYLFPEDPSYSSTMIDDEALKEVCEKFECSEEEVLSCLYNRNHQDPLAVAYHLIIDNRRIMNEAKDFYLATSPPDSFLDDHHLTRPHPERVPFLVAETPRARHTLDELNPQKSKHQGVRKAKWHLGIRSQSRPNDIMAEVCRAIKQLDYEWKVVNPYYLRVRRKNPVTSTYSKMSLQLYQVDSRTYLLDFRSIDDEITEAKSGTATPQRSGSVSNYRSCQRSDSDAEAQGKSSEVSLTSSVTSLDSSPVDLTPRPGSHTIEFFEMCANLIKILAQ
Assay [6] deals with Serine/threonine-protein kinase MRCK gamma (Homo sapiens) (UniProt Q6DT37). Nature of the assay: Inhibition of DMPK2 (unknown origin) at 10 uM by Ambit Kinomescan binding assay.
Sequence of Serine/threonine-protein kinase MRCK gamma (Homo sapiens) (Q6DT37 whole entry): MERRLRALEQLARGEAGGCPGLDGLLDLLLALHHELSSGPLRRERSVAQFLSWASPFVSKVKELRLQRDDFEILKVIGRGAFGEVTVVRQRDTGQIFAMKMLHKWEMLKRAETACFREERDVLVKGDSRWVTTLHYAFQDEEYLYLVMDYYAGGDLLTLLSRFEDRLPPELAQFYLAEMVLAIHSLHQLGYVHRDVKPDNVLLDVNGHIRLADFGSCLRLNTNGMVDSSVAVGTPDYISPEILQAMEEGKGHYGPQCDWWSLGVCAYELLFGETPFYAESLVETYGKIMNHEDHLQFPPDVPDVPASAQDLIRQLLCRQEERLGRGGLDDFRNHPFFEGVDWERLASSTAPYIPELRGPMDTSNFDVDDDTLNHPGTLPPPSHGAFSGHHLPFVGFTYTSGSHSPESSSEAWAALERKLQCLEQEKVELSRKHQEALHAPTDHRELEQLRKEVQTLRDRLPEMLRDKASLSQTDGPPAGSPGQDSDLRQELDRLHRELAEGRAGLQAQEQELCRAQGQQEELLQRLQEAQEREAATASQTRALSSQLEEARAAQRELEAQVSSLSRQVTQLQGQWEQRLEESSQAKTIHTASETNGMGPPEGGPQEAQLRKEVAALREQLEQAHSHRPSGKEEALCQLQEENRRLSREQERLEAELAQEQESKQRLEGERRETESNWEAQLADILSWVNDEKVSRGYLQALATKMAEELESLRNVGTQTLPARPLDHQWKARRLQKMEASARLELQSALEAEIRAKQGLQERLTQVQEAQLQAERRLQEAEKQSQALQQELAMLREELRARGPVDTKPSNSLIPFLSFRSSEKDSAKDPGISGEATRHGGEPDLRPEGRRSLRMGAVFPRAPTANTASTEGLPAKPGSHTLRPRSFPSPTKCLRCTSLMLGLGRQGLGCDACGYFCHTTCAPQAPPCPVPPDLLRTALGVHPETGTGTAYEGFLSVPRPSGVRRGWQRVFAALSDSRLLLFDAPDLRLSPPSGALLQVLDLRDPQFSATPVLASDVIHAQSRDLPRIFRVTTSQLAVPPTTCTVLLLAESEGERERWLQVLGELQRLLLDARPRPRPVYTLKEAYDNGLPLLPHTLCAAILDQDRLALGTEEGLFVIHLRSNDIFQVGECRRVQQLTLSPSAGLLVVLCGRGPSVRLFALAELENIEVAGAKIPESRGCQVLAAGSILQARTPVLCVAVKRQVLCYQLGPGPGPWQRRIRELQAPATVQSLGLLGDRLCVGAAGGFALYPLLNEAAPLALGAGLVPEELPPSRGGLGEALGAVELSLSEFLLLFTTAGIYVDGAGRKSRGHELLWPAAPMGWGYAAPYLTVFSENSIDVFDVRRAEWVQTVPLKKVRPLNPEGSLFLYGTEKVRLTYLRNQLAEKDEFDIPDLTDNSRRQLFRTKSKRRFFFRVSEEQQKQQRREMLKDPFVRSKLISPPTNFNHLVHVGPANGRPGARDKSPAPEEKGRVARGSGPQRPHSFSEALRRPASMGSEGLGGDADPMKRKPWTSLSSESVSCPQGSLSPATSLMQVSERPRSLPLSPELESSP
Assay [7] deals with T1, Serine/threonine-protein kinase LATS2 (Homo sapiens) (UniProt Q9NRM7).
T1 sequence (whole entry): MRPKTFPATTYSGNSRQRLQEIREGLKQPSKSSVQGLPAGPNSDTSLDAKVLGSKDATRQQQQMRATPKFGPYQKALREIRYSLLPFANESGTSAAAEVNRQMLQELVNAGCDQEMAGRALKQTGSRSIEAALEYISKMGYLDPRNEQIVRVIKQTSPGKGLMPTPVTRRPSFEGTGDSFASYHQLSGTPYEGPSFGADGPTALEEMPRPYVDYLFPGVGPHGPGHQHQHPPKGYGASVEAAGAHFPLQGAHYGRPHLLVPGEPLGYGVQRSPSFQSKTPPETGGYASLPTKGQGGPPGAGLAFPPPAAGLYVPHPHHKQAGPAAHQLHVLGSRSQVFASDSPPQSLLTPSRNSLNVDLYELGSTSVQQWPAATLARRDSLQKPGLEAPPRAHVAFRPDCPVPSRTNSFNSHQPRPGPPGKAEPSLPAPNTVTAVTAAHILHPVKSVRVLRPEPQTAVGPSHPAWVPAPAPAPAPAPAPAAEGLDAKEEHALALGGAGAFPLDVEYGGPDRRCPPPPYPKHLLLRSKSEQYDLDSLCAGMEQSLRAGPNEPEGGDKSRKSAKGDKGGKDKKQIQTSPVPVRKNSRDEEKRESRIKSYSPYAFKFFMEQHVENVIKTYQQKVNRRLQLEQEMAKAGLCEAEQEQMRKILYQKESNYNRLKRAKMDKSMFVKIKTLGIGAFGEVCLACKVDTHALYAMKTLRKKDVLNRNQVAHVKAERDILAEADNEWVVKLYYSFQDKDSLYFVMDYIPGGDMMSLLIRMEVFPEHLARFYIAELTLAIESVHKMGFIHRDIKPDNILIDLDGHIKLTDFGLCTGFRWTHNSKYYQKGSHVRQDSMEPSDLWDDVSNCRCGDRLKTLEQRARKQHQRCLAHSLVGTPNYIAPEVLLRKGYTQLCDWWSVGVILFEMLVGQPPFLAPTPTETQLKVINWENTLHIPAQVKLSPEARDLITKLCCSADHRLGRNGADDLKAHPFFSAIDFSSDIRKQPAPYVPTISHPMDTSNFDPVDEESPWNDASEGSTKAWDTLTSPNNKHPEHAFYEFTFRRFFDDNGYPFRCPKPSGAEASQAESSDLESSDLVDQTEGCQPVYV
In words: Inhibition of LATS2 Lys2 labeling site in human A-375 cells at 5 uM by KiNativ Profiling analysis relative to control. Type of assay: cell-based.

Assay [8] deals with Activin receptor type-1-like (Homo sapiens) (UniProt P37023). In words: Inhibition of ACVRL1 (unknown origin) at 10 uM by Ambit Kinomescan binding assay.
Sequence of Activin receptor type-1-like (Homo sapiens) (P37023 whole entry): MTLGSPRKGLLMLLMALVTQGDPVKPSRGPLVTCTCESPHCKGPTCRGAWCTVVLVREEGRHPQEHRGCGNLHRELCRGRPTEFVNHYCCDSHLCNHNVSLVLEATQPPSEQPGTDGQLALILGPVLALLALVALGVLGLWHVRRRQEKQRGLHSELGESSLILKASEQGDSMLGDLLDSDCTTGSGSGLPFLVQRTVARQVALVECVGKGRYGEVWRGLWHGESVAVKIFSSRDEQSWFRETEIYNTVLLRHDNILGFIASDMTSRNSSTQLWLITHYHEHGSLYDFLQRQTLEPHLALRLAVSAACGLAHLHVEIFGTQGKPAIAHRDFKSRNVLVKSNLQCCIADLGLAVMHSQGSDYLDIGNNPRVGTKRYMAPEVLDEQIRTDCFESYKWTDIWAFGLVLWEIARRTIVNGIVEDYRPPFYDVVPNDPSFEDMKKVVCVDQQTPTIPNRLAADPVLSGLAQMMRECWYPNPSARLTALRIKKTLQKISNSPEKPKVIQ
In assay [9] the target is T2, Mitogen-activated protein kinase kinase kinase 3 (Homo sapiens) (UniProt Q99759).
T2 sequence (whole entry): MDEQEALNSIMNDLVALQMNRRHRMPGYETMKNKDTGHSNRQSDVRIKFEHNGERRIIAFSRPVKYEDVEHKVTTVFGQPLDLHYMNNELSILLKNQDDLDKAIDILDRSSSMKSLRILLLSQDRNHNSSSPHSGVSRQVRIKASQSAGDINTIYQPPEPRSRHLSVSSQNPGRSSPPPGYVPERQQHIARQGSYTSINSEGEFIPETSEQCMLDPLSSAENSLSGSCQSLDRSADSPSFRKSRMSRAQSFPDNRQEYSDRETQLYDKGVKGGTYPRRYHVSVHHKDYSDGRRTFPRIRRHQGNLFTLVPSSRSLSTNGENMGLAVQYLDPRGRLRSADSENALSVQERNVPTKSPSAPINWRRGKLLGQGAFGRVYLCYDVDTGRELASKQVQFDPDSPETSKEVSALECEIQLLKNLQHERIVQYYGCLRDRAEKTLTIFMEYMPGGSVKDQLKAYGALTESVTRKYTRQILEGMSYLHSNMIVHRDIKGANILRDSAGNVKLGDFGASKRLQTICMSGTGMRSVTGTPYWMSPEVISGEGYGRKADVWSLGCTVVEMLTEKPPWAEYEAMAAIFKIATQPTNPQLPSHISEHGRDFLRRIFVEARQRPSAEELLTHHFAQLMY
In words: Inhibition of MAP3K3 Lys2 labeling site in human Huh-7 cell lysate at 1 uM by KiNativ Profiling analysis relative to control. Type of assay: subcellular.

Sequence of 5'-AMP-activated protein kinase catalytic subunit alpha-1 (Homo sapiens) (Q13131 whole entry, looked up): as the sequence (Q13131 whole entry, looked up) above

In the case of `CCN1CCN(Cc2ccc(NC(=O)c3ccc(C)c(/C=C/c4cnc5[nH]ccc5c4OC)c3)cc2C(F)(F)F)CC1`, the results for the inhibition in assay [1], in [2] and in assay [3] were 34.7%, 11.9% and 25%, respectively.
As for `CCN1CCN(Cc2ccc(NC(=O)c3ccc(C)c(Oc4ccnc5[nH]ccc45)c3)cc2C(F)(F)F)CC1`, the inhibition entry in assay [4], in [6] and in assay [8] was “inactive” throughout. The inhibition in [5] was determined as 6.2%; in assay [7] it was 5.5%.
In [9], `CNc1cc(Oc2cc(C(=O)Nc3cc(N4CCN(C)CC4)cc(C(F)(F)F)c3)ccc2C)ncn1` came in with an inhibition of 1.9%.
